The values that follow come from patent US20080051429A1, “USE OF 4-AMINO-PIPERIDINES FOR TREATING SLEEP DISORDERS” (priority 2006, published 2008).

Data set [1] concerns the target 5HT1B (Homo sapiens, UniProt P28222). In words: R-SAT broad profiling. The class given is cell-based. Details: expressed in transfected cells; host or cells: NIH3T3. The conditions noted are these: read-out: pEC50 or pIC50 (converted). As for the experimental part:
(§1) The functional receptor assay, Receptor Selection and Amplification Technology (R-SAT), was used (with minor modifications from that previously described U.S. Pat. No. 5,707,798) to screen compounds for efficacy at the 5-HT2A receptor. Briefly, NIH3T3 cells were grown in 96 well tissue culture plates to 70-80% confluence. Cells were transfected for 12-16 hours with plasmid DNAs using superfect (Qiagen Inc.) as per manufacture's protocols. R-SAT's were generally performed with 50 ng/well of receptor and 20 ng/well of Beta-galactosidase plasmid DNA. All receptor and G-protein constructs used were in the pSI mammalian expression vector (Promega Inc) as described in U.S. Pat. No. 5,707,798. The 5HT2A receptor gene was amplified by nested PCR from brain cDNA using the oligodeoxynucleotides based on the published sequence (see Saltzman et. al. Biochem. Biophys. Res. Comm. 181:1469-78 (1991)). Large-scale transfections, cells were transfected for 12-16 hours, then trypsinized and frozen in DMSO. Frozen cells were later thawed, plated at 10,000-40,000 cells per well of a 96 well plate that contained drug. With both methods, cells were then grown in a humidified atmosphere with 5% ambient CO2 for five days. Media was then removed from the plates and marker gene activity was measured by the addition of the beta-galactosidase substrate ONPG (in PBS with 5% NP-40). The resulting colorimetric reaction was measured in a spectrophotometric plate reader (Titertek Inc.)at […]. All data were analyzed using the computer program XLFit (IDBSm). Efficacy is the percent maximal repression compared to repression by a control compound (ritanserin in the case of 5HT2A). pIC50 is the negative of the log(IC50), where IC50 is the calculated concentration in Molar that produces 50% maximal repression.
(§2) The R-SAT assay (described above in example 289) was used to investigate the selectivity of 4-(4-Fluoro-benzyl)-3-(4-isobutoxy-benzyl)-8-methyl-1-oxa-3,8-diaza-spiro[4.5]decan-2-one.

Data set [2] addresses T1, 5HT2C (Homo sapiens, UniProt P28335).
T1 sequence (P28335 33-458): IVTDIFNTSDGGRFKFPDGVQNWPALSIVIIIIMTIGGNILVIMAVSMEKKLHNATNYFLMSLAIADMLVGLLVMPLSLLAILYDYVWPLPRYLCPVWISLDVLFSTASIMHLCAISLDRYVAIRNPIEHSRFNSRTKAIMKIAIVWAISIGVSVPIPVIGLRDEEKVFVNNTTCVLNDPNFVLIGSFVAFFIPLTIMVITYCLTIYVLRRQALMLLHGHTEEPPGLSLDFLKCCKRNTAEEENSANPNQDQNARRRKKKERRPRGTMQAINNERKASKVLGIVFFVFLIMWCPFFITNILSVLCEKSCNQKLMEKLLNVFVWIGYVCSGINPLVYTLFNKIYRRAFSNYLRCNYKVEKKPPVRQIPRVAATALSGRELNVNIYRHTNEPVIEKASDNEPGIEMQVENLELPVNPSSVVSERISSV
In words: R-SAT broad profiling. It is filed as cell-based. Details: expressed in transfected cells; host or cells: NIH3T3. As to the method: as §1, §2

Data set [3] concerns the target T2, 5HT1A (Homo sapiens, UniProt P08908).
T2 sequence (P08908 1-422): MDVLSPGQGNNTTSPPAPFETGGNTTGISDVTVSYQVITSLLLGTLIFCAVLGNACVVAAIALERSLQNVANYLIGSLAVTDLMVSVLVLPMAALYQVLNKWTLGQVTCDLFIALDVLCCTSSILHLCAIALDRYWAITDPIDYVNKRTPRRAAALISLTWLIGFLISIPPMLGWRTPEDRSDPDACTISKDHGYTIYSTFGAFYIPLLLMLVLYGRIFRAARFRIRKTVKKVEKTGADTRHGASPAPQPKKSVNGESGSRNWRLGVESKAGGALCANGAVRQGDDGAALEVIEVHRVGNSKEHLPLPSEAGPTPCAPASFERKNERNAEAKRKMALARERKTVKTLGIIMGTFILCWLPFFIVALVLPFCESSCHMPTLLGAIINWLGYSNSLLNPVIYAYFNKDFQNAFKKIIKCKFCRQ
In words: R-SAT broad profiling. The class given is cell-based. To be noted: agonist; read-out: pEC50 or pIC50 (converted). Details: expressed in transfected cells; host or cells: NIH3T3. As to the method: as §1, §2

Data set [4] concerns the target T3, 5HT1F (Homo sapiens, UniProt P30939).
T3 sequence (P30939 1-366): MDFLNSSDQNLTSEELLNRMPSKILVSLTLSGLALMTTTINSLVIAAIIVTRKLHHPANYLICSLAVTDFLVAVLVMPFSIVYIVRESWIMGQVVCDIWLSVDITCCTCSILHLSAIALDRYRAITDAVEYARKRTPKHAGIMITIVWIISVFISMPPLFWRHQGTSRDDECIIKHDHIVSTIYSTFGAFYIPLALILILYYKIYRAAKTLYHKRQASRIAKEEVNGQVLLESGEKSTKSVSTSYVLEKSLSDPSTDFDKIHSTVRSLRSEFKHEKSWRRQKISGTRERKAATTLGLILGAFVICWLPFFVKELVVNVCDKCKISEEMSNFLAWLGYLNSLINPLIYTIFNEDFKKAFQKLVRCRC
As to the kind of experiment: R-SAT broad profiling. To be noted: read-out: pEC50 or pIC50 (converted). Details: expressed in transfected cells; host or cells: NIH3T3. It is filed as cell-based. As for the experimental part:
as §1, §2

Data set [5] is described as follows: Plasma levels (LC/MS/MS). It is filed as in vivo, human. To be noted: after 13 days; for plasma concentration, Mean: n = 9. As for the experimental part: Plasma Levels: Blood samples were collected into Vacutainer® (dry sodium heparin, green top tube, 6 mL capacity) on Day −1 and again on Day 14 (pre-dose). The time interval between blood collection and freezing of the plasma was no longer than 45 minutes. Within 45 minutes of collection, the plasma fractions were separated by centrifugation at 3,000 rotations per minutes for 10 minutes. The plasma fractions were divided and transferred into two properly labeled storage tubes and frozen at approximately −70° C. Plasma samples were evaluated for N-(1-methylpiperidin-4-yl)-N-(4-fluorophenylmethyl)-N′-(4-(2-methylpropyloxy)phenylmethyl)carbamide using a validated high performance liquid chromatography/tandem mass spectrometric (LC/MS/MS) assay.

Structures are written as SMILES. Some results are limits rather than exact numbers.

Sequence of 5HT1B (P28222 whole entry, species assumed): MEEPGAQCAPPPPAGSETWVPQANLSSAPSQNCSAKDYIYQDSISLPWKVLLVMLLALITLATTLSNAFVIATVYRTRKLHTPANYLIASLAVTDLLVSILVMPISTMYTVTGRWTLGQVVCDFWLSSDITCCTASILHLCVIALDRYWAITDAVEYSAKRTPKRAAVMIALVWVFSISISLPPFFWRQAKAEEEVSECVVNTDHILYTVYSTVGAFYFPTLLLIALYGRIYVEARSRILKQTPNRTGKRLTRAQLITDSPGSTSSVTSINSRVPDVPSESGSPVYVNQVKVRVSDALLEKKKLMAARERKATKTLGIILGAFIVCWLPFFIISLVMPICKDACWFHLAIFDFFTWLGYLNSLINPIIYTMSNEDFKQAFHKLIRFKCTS

With `CC(C)COc1ccc(CN2C(=O)OC3(CCN(C)CC3)C2Cc2ccc(F)cc2)cc1.Cl` (racemic) [Example 69NLS75, 4-(4-Fluorobenzyl)-3-(4-isobutoxybenzyl)-8-methyl-1-oxa-3,8-diazaspiro[4.5]decan-2-one, hydrochloride], the EC50 in data set [1] (agonist) is more than 3.16 µM; in data set [2] (agonist, read-out: pEC50 or pIC50 (converted)), more than 3.16 µM; in data set [3], more than 3.16 µM; in data set [4] (agonist), more than 3.16 µM. Also, the IC50 in data set [1] (antagonist) and in data set [4] (antagonist) was more than 3.16 µM in each case. For the same compound, the efficacy in brackets in data set [2] (inverse) is 77%.

As to `CC(C)COc1ccc(CNC(=O)N(Cc2ccc(F)cc2)C2CCN(C)CC2)cc1` [N-(1-methylpiperidin-4-yl)-N-(4-fluorophenylmethyl)-N′-(4-(2-methylpropyloxy)phenylmethyl)carbamide], in data set [5] (1 mg once daily), the “plasma concentration, Maximum” value was found to be 2.33 ng/mL; the “plasma concentration, Median” value is given as 1.750 ng/mL; the “plasma concentration, Minimum” value amounted to 0.92 ng/mL; the “plasma concentration, Mean” value is given as 1.628 ng/mL. In addition, in data set [5] (2.5 mg once daily), the “plasma concentration, Maximum” value came out at 5.55 ng/mL; the “plasma concentration, Median” value is 3.360 ng/mL; the “plasma concentration, Minimum” value is 2.07 ng/mL; the “plasma concentration, Mean” value amounted to 3.647 ng/mL. Moreover, in data set [5] (5 mg once daily), the “plasma concentration, Maximum” value is 13.00 ng/mL; the “plasma concentration, Median” value stood at 8.720 ng/mL; the “plasma concentration, Minimum” value is 5.91 ng/mL; the “plasma concentration, Mean” value is given as 8.516 ng/mL. Moreover, in data set [5] (20 mg once daily), the “plasma concentration, Maximum” value stood at 52.70 ng/mL; the “plasma concentration, Median” value is 34.100 ng/mL; the “plasma concentration, Minimum” value is recorded as 21.90 ng/mL; the “plasma concentration, Mean” value came out at 35.033 ng/mL.
